This is an account of results in patent US20220235255A1, “FLUORINE SUBSTITUTED UNSYMMETRICAL ETHERS, AND COMPOSITIONS, METHODS AND USES INCLUDING SAME” (HONEYWELL INTERNATIONAL INC., priority 2021, published 2022).

Holding throughout (type): physicochemical
Data set [1] is described as follows: Dielectric constant, ASTM D150-11, room temperature, 20 GHz. From the text:
Dielectric Constant means the dielectric constant as measured in accordance with ASTM D150-11 at room temperature at 20 giga hertz (GHz).

The nature of data set [2]: Flash point / non-flammability, ASTM D3828-16a, NFPA 30. From the text: Flash Point refers the lowest temperature at which vapors of the liquid will keep burning after the ignition source is removed as determined in accordance with ASTM D3828-16a.
The flash point of a thermal management composition or fluid refers the lowest temperature at which vapours of the composition will keep burning after the ignition source is removed as determined in accordance with ASTM D3828-16a.

The nature of a further data set: Normal boiling point.

Turning to `FC(F)(F)COC(C(F)(F)F)C(F)(F)F` [Compound 1A, propane, 2-(2′,2′,2′-trifluorethoxy)-(1,1,1,3,3,3-hexafluoro)], in data set [1], the dielectric constant entry is recorded as “below 4”. Besides, the flash point result in data set [2] is “no flash point”. The normal boiling point entry in “Normal boiling point” was “about 69 °C”.
